Laboratory results as given in publication PMC12392461, “Beyond Estrogenicity: A Comparative Assessment of Bisphenol A and Its Alternatives in In Vitro Assays Questions Safety of Replacements” (Environmental Science & Technology, 2025).
Where two headings read alike, the source gives them in different places.

Tests used:
[1] = tested on: Mitochondrial Membrane Potential; assay: cells
Excerpt: All bioassay media components and the ERα-UAS-bla GripTite and PPARγ-UAS-bla cells were obtained from Thermo Fisher Scientific (Waltham, MA, USA). AREc32 reporter gene cells based on MCF7 were provided by C. Roland Wolf (Cancer Research UK); AhR CALUX cells (H4L7.5c2 derived from H4IIe) were provided by Michael Denison (UC Davis, USA); and SH-SY5Y cells were purchased from Sigma-Aldrich.
(§1) Cell culture conditions and bioassay protocols including response detection are provided in Text S2.1–2.4 and Table S3. − Cell viability was determined from cell confluency using an IncuCyte S3 Live-Cell Analysis System (Sartorius AG, Essen, Germany) before and after exposure, except for SH-SY5Y cells (live–dead staining with Nuclear Green LcS1 and propidium iodide, Abcam, UK). For metabolic activation experiments, cell viability was assessed using the ToxBLAzer DualScreen Kit (Thermo Fisher Scientific) to capture the remaining toxicity in ERα-UAS-bla GripTite after treatment with the aCYP catalyst (details in Text S2.4).
For ARE, the concentration that triggered an induction ratio of 1.5 (ECIR1.5) was used as the benchmark value, as detailed in Text S2.5. IC10 values also served as a threshold for data analysis in all assays; only concentrations below IC10 were considered when deriving EC10 or ECIR1.5. […]
S2: Cell culture and bioassays
S2.1: Cell Culturing Conditions
All suppliers and sources are given in detail in SI-Excel S3. The bioassay media for the different assays were prepared as follows: Assay medium for ER alpha-UAS-bla GripTite (ERα) and […]
2% charcoal-stripped FBS, and 100 U/mL penicillin-streptomycin. MitoOxTox and AhR assay medium was comprised of 90% DMEM with GlutaMAX, supplemented with 10% FBS, and 100 U/mL penicillin-streptomycin. […]
(§2) S2.2: Cell Seeding and Incubation. For all bioassays, cell suspensions in the respective assay medium were dispensed into each well of 384-well plates using a MultiFlo Dispenser (Biotek, (now Agilent), Winooski, VT, U.S.). After seeding, the plates were incubated at 37° C and 5% CO₂ for […]. The final cell densities and plate types were as follows: Black poly-D-lysine […]
(§3) 6500 cells/well, ERα: 5000 cells/well. White 384-well plates with a clear bottom (Product No.
(§4) NYC, U.S.) for AhR: 3250 cells/well. Black Collagen I coated plates were used (Product No.
(§5) S2.3: Chemical Dosing and Assay Analysis Procedures. The dosing procedure and high-throughput assay workflow have been described in detail before. 9 The dosing concentrations […]
Stock solutions were then either

[2] = tested on: HEK293H (PPARγ); conditions: for IC10, HEK293, PPARγ: cytotoxicity, HEK293 (PPARγ assay cells)
Experimental: as §1
(§6) For ARE, the concentration that triggered an induction ratio of 1.5 (ECIR1.5) was used as the benchmark value, as detailed in Text S2.5. IC10 values also served as a threshold for data analysis in all assays; only concentrations below IC10 were considered when deriving EC10 or ECIR1.5.
(§7) We measured the cytotoxicity of BPA and its alternatives in HEK293H (PPARγ), HEK293T (ERα), H4IIe (AhR CALUX), MCF7 (ARE/MMP), and differentiated SH-SY5Y cells (Table S6). […]
as §2, §3, §4, §5
(§8) Stock solutions were then either added directly to the respective cell culture medium or evaporated under nitrogen, followed by replenishment with fresh medium. The final solvent content in each well was kept below 1% for methanol, 0% for acetonitrile.
(§9) Dosing plates were prepared as 11 -step serial dilutions using a Hamilton Microlab Star robotic system (Hamilton, Bonaduz, Switzerland), and chemicals were dosed in duplicates by transferring 10 μL twice from the dosing plates to the cell plates . After quantifying cell confluency as described in S2. 4., the exposed cells were incubated at 37° C and 5% CO₂ for an additional 24 h. All chemicals were tested in all assays with at least three independent […]
(§10) S2.4: Cell Viability Measurement s and bioanalytical protocols . The confluency as a measure of cell viability was determined with an IncuCyte S3 Live -Cell Analysis System (Sartorius AG, Essen, Germany). With this method the confluency of cells in a microscopy image are normalized to control wells without cells and compared before and after 24 hours of exposure.
(§11) This method has been described previously 13. […]

[3] = tested on: H4IIe (AhR CALUX); conditions: for IC10, H4IIe, AhR: H4IIe (AhR assay cells)
Experimental: as §1, §6, §7, §2, §3, §4, §5, §8, §9, §10, §11

[4] = tested on: MCF7 (ARE/MMP); conditions: for IC10, MCF7, ARE: MCF7, ARE readout; for IC10, MCF7, MMP: MCF7, MMP readout
Experimental: as §1, §6, §7, §2, §3, §4, §5, §8, §9, §10, §11

[5] = tested on: HEK293T (ERα); conditions: for IC10, HEK293, ERα: HEK293 (ERα assay cells)
Experimental: as §1, §6, §7, §2, §3, §4, §5, §8, §9, §10, §11

[6] = Arec32, read-out: EC10, MMP (M)
[7] = Arec32, read-out: EC10, linear transformed
[8] = PPARγ bioassay cytotoxicity, dosing range all
[9] = PPARγ bioassay cytotoxicity, dosing range all, log-logistic model
[10] = Bioassay AhR, cytotoxicity, dosing range all
[11] = Bioassay AhR, cytotoxicity, dosing range all, linear model fit
[12] = Bioassay AhR, cytotoxicity, dosing range all, log-logistic model fit
[13] = Bioassay ARE, cytotoxicity, dosing range all
[14] = Bioassay ARE, cytotoxicity, dosing range all, linear model fit
[15] = Bioassay ARE, cytotoxicity, dosing range all, log-logistic model fit
[16] = MMP bioassay cytotoxicity, dosing range all
[17] = MMP bioassay cytotoxicity, dosing range all, linear model
[18] = MMP bioassay cytotoxicity, dosing range all, log-logistic model
[19] = Bioassay ERα, cytotoxicity, dosing range all
[20] = Bioassay ERα, cytotoxicity, dosing range all, linear model fit
[21] = Bioassay ERα, cytotoxicity, dosing range all, log-logistic model fit

Compound | EC10 ([1]; Arec32, read-out: EC10, MMP) [M] | EC10 [1, 6] [M] | EC10 ([1]; Arec32, read-out: EC10, linear) [M] | EC10 [1, 7] [M] | EC10 ([1]; Arec32, read-out: logEC10) [M] | IC10, linear transformed [2, 8] | logIC10 [2, 9] | IC10, HEK293, PPARγ [2] [µM] | IC10, linear transformed [3, 10] | IC10, linear [3, 11] | logIC10 [3, 12] | IC10, H4IIe, AhR ([3]; cytotoxicity) [µM] | IC10, linear transformed [4, 13] | IC10, linear [4, 14] | logIC10 [4, 15] | IC10, linear transformed [4, 16] | IC10, linear [4, 17] | logIC10 [4, 18] | IC10, MCF7, ARE ([4]; cytotoxicity) [µM] | IC10, MCF7, MMP ([4]; cytotoxicity) [µM] | other results
Oc1ccc(C2(c3ccc(O)cc3)CCCCC2)cc1 [BPZ, 1,1'-Bis(4-hydroxyphenyl)cyclohexane] | 2.21e-05 | 2.21e-05 | 1.31e-05 | 2.39e-05 | 2.19e-05 | 4.22E-06 | -5.04 | 9.12 | 8.38E-05 | 1.06E-04 | -4.08 | 83.8 | 7.27E-05 | 3.45E-05 | -4.14 | 3.28E-05 | 3.30E-05 | -4.48 | 72.7 | 32.8 | IC10, linear transformed [5, 19]: 8.13E-06; IC10, linear [5, 20]: 6.53E-06; logIC10 [5, 21]: -5.18; IC10, HEK293, ERα ([5]; cytotoxicity): 6.64 µM
CC(C)c1cc(C(C)(C)c2ccc(O)c(C(C)C)c2)ccc1O [BPG, 2,2-Bis(4-hydroxy-3-isopropylphenyl)propane] | 3.12e-06 | 3.12e-06 | 2.65e-06 | 3.08e-06 | 3.09e-06 | 3.91E-06 | -5.19 | 6.46 | 2.43E-05 | 2.10E-05 | -4.61 | 21 | 6.03E-06 | 7.17E-06 | -5.22 | 8.72E-06 | 8.88E-06 | -5.06 | 6.03 | 8.72 | Specificity ratio (SRbaseline) SRMMP ([1]; against baseline cytotoxicity): 1.70; Specificity ratio (SRcytotoxicity) SRMMP ([1]; against experimental cytotoxicity): 2.79; Relative effect potency REPMMP ([1]; relative to BPA): 8.97; IC10, linear ([2]; PPARγ bioassay cytotoxicity, dosing range all, linear model): 5.23E-06; Toxic ratio (TR) TRPPARγ ([2]; against baseline cytotoxicity): 0.22; Toxic ratio (TR) TRAhR ([3]; against baseline cytotoxicity): 0.25; Toxic ratio (TR) TRARE ([4]; against baseline cytotoxicity, ARE readout): 0.88; Toxic ratio (TR) TRMMP ([4]; against baseline cytotoxicity, MMP readout): 0.61; IC10, linear transformed [5, 19]: 5.99E-06; IC10, linear [5, 20]: no cytotoxicity; logIC10 [5, 21]: -5.16; Toxic ratio (TR) TRERα ([5]; against baseline cytotoxicity): 0.21; IC10, HEK293, ERα ([5]; cytotoxicity): 6.95 µM
CC(C)CC(C)(c1ccc(O)cc1)c1ccc(O)cc1 [BP-MIBK, 4,4'-(1,3-Dimethylbutylidene)diphenol] | 1.14e-05 | 1.14e-05 | 7.7e-06 | 1.12e-05 | 1.15e-05 |  |  |  |  |  |  |  |  |  |  |  |  |  |  |  | logIC10 ([2]; human, 24 h): -5.09; IC10, linear [3]: no cytotoxicity; logIC10 ([3]; rat, 24 h): -4.05; IC10, linear [4]: no cytotoxicity; IC10, linear [5]: no cytotoxicity; logIC10 [5]: no cytotoxicity; logIC10 ([5]; human, 24 h): -5.04
